Measurements as given in patent publication US9273058B2 (BRISTOL-MYERS SQUIBB COMPANY, priority 2013, dated 2016).

Experiments:
CK1ε = CK1ε (Homo sapiens, UniProt P49674); test: CK1ε kinase assay (Caliper LabChip electrophoretic separation of fluoresceinated peptide substrate and product); format: biochemical; settings: 200 pM CK1ε, 50 μM ATP, 1.5 μM peptide, 22 hours at room temperature; read-out: CK1ε IC50 range
Procedure, shortened: (§1)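 Each reaction was incubated 22 hours at room temperature and terminated with EDTA. Read-out was microfluidic electrophoretic separation of fluoresceinated substrate and phospho-product.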

CK1δ = CK1δ (Homo sapiens, UniProt P48730); test: CK1δ kinase assay (Caliper LabChip electrophoretic separation of fluoresceinated peptide substrate and product); format: biochemical; settings: 200 pM CK1δ, 50 μM ATP, 1.5 μM peptide, 22 hours at room temperature; read-out: CK1δ IC50 range
Procedure, shortened: as §1

Chain of CK1δ (P48730 whole entry): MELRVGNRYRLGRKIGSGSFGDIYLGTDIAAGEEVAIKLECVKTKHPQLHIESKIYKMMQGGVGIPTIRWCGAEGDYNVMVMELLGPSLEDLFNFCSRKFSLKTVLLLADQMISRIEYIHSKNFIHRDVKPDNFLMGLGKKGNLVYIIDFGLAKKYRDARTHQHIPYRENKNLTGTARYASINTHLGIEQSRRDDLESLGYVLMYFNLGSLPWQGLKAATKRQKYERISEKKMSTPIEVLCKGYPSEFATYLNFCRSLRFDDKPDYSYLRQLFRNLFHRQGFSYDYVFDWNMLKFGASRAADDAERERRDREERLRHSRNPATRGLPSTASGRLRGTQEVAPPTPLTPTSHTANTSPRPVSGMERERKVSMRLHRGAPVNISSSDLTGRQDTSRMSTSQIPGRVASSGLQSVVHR
Chain of CK1ε (P49674 whole entry): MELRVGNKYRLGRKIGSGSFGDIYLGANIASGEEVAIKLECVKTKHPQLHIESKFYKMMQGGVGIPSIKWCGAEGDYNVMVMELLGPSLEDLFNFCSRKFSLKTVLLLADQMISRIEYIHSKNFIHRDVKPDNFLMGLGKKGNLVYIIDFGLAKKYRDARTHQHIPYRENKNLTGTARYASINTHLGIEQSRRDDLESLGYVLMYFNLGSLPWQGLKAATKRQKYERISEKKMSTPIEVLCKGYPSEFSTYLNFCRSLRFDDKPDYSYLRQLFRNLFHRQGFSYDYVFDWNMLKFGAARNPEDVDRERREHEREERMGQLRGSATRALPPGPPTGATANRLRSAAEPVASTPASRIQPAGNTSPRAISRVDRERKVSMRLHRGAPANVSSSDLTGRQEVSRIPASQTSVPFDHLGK

Structure (SMILES) | IC50 (CK1ε) [nM] | IC50 (CK1δ) [nM]
CS[C@H]1C[C@@H](NC(=O)N2CCn3nc(-c4ccc(Cl)c(Cl)c4)c(C(N)=O)c3C2)C1 [Compound 271, 2-(3,4-Dichlorophenyl)-N^5-((1s,3s)-3-(methylthio)cyclobutyl)-6,7-dihydropyrazolo[1,5-a] pyrazine-3,5(4H)-dicarboxamide] | 0.01 to 10 | 0.01 to 10
CS(=O)(=O)[C@H]1C[C@@H](NC(=O)N2CCn3nc(-c4ccc(F)c(Cl)c4)c(C(N)=O)c3C2)C1 [Compound 272, 2-(3-Chloro-4-fluorophenyl)-N^5-((1s,3s)-3-(methylsulfonyl)cyclobutyl)-6,7-dihydropyrazolo[1,5-a]pyrazine-3,5(4H)-dicarboxamide] | 0.01 to 10 | 0.01 to 10
CS(=O)(=O)[C@H]1C[C@@H](NC(=O)N2CCn3nc(-c4cccc(Cl)c4)c(C(N)=O)c3C2)C1 [Compound 273, 2-(3-Chlorophenyl)-N^5-((1s,3s)-3-(methylsulfonyl)cyclobutyl)-6,7-dihydropyrazolo[1,5-a] pyrazine-3,5(4H)-dicarboxamide] | 0.01 to 10 | 0.01 to 10
CS(=O)(=O)[C@H]1C[C@@H](NC(=O)N2CCn3nc(-c4ccc(Cl)c(Cl)c4)c(C(N)=O)c3C2)C1 [Compound 274, 2-(3,4-Dichlorophenyl)-N^5-((1s,3s)-3-(methylsulfonyl)cyclobutyl)-6,7-dihydropyrazolo[1,5-a] pyrazine-3,5(4H)-dicarboxamide] | 0.01 to 10 | 0.01 to 10
C[C@]1(NC(=O)N2CCn3nc(-c4ccc(F)c(Cl)c4)c(C(N)=O)c3C2)C[C@H](F)C1 [Compound 275, 2-(3-Chloro-4-fluorophenyl)-N^5-((1r,3r)-3-fluoro-1-methylcyclobutyl)-6,7-dihydropyrazolo[1,5-a]pyrazine-3,5(4H)-dicarboxamide] | 0.01 to 10 | 0.01 to 10
NC(=O)c1c(-c2ccc(F)c(Cl)c2)nn2c1CN(C(=O)N[C@H]1C[C@@H](c3ccc(F)cc3)C1)CC2 [Compound 276, 2-(3-Chloro-4-fluorophenyl)-N^5-((1s,3s)-3-(4-fluorophenyl)cyclobutyl)-6,7-dihydropyrazolo[1,5-a]pyrazine-3,5(4H)-dicarboxamide] | 0.01 to 10 | 0.01 to 10
NC(=O)c1c(-c2cccc(Cl)c2)nn2c1CN(C(=O)N[C@H]1C[C@@H](c3ccc(F)cc3)C1)CC2 [Compound 277, 2-(3-Chlorophenyl)-N^5-((1s,3s)-3-(4-fluorophenyl)cyclobutyl)-6,7-dihydropyrazolo[1,5-a] pyrazine-3,5(4H)-dicarboxamide] | 0.01 to 10 | 0.01 to 10
NC(=O)c1c(-c2ccc(Cl)c(Cl)c2)nn2c1CN(C(=O)N[C@H]1C[C@@H](c3ccc(F)cc3)C1)CC2 [Compound 278, 2-(3,4-Dichlorophenyl)-N^5-((1s,3s)-3-(4-fluorophenyl)cyclobutyl)-6,7-dihydropyrazolo[1,5-a] pyrazine-3,5(4H)-dicarboxamide] | 0.01 to 10 | 0.01 to 10
COc1ccc([C@H]2C[C@@H](NC(=O)N3CCn4nc(-c5ccc(F)c(Cl)c5)c(C(N)=O)c4C3)C2)cc1 [Compound 279, 2-(3-Chloro-4-fluorophenyl)-N^5-((1s,3s)-3-(4-methoxyphenyl)cyclobutyl)-6,7-dihydropyrazolo[1,5-a]pyrazine-3,5(4H)-dicarboxamide] | 0.01 to 10 | 0.01 to 10
COc1ccc([C@H]2C[C@@H](NC(=O)N3CCn4nc(-c5ccc(Cl)c(Cl)c5)c(C(N)=O)c4C3)C2)cc1 [Compound 280, 2-(3,4-dichlorophenyl)-N^5-((1s,3s)-3-(4-methoxyphenyl)cyclobutyl)-6,7-dihydropyrazolo[1,5-a] pyrazine-3,5(4H)-dicarboxamide] | 0.01 to 10 | 0.01 to 10
COc1ccc([C@H]2C[C@@H](NC(=O)N3CCn4nc(-c5cccc(Cl)c5)c(C(N)=O)c4C3)C2)cc1 [Compound 281, 2-(3-Chlorophenyl)-N^5-((1s,3s)-3-(4-methoxyphenyl)cyclobutyl)-6,7-dihydropyrazolo[1,5-a] pyrazine-3,5(4H)-dicarboxamide] | 0.01 to 10 | 0.01 to 10
